Patent US9944602B2, “Piperidinone herbicides” (E. I. DU PONT DE NEMOURS AND COMPANY, priority 2014, dated 2018)

Key:
Assay type in all cases: in vivo
[1] = system: crabgrass, large (large crabgrass, Digitaria sanguinalis); experiment: Test A postemergence crabgrass, large; settings: 0 to 100 scale, 0 is no effect, 100 is complete control
Description: (§1) Seeds of plant species selected from barnyardgrass (Echinochloa crus-galli), kochia (Kochia scoparia), ragweed (common ragweed, Ambrosia elatior), ryegrass, Italian (Italian ryegrass, Lolium multiflorum), crabgrass, large (large crabgrass, Digitaria sanguinalis), foxtail, giant (giant foxtail, Setaria faberii), morningglory (Ipomoea spp.), pigweed (Amaranthus retroflexus), velvetleaf (Abutilon theophrasti), wheat (Triticum aestivum), and corn (Zea mays) were planted into a blend of loam soil and sand and treated preemergence with a directed soil spray using test chemicals formulated in a non-phytotoxic solvent mixture which included a surfactant.
(§2) At the same time, plants selected from these crop and weed species and also blackgrass (Alopecurus myosuroides), and galium (catchweed bedstraw, Galium aparine) were planted in pots containing the same blend of loam soil and sand and treated with postemergence applications of test chemicals formulated in the same manner. Plants ranged in height from 2 to 10 cm and were in the one- to two-leaf stage for the postemergence treatment. Treated plants and untreated controls were maintained in a greenhouse for approximately 10 d, after which time all treated plants were compared to untreated controls and visually evaluated for injury. Plant response ratings, summarized in Table A, are based on a 0 to 100 scale where 0 is no effect and 100 is complete control. A dash (-) response means no test result.

[2] = system: wheat (Triticum aestivum); experiment: Test A preemergence wheat; settings: 0 to 100 scale, 0 no effect, 100 complete control
Description: as §1, §2

[3] = system: crabgrass, large (large crabgrass, Digitaria sanguinalis); experiment: Test A preemergence crabgrass, large; settings: 0 to 100 scale; for Crabgrass, Large plant response rating: 125 g ai/ha, 0 no effect, 100 complete control; for Plant response rating, Crabgrass, Large: 500 g ai/ha, 0 is no effect, 100 is complete control
Description: as §1, §2

[4] = system: sedge, umbrella (small-flower umbrella sedge, Cyperus difformis); experiment: Test B flooded paddy test sedge, umbrella; settings: Table B, Flood, 250 g ai/ha, scale 0 to 100
Outline: (§3)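 Test pots carrying 2-leaf-stage seedlings were flooded to 3 cm above the soil surface when treated. Compound went directly into the standing water. Plants stayed in the greenhouse at that depth for 13 to 15 d before visual comparison with controls.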

[5] = system: barnyardgrass (Echinochloa crus-galli); experiment: Test B flooded paddy test barnyardgrass; settings: Table B, Flood, 250 g ai/ha, scale 0 to 100
Outline: as §3

[6] = system: ducksalad (Heteranthera limosa); experiment: Test B flooded paddy test ducksalad; settings: Table B, Flood, 250 g ai/ha, scale 0 to 100
Outline: as §3

[7] = system: velvetleaf (Abutilon theophrasti); experiment: Test A preemergence velvetleaf; settings: 0 to 100 scale, 0 no effect, 100 complete control
Description: as §1, §2

rice (Oryza sativa) = experiment: Test B flooded paddy test rice; settings: Table B, Flood, 250 g ai/ha, scale 0 to 100
Outline: as §3

[8] = system: wheat (Triticum aestivum); experiment: Test A postemergence wheat; settings: 0 to 100 scale, 0 is no effect, 100 is complete control
Outline: (§4)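 Scores are visual injury ratings on a 0–100 scale (100 = complete control) taken about 10 d after treatment, relative to untreated greenhouse controls. Preemergence: directed soil spray over planted seeds in loam/sand; postemergence: spray onto one- to two-leaf plants 2–10 cm high; surfactant-containing solvent formulation.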

[9] = system: pigweed (Amaranthus retroflexus); experiment: Test A preemergence pigweed; settings: 0 to 100 scale, 0 no effect, 100 complete control
Outline: as §4

[10] = system: foxtail, giant (giant foxtail, Setaria faberii); experiment: Test A postemergence foxtail, giant; settings: 0 to 100 scale, 0 is no effect, 100 is complete control
Outline: as §4

[11] = system: barnyardgrass (Echinochloa crus-galli); experiment: Test A postemergence barnyardgrass; settings: 0 to 100 scale, 0 is no effect, 100 is complete control
Outline: as §4

corn (Zea mays) [12] = experiment: Test A preemergence corn; settings: 0 to 100 scale; for Corn plant response rating: 125 g ai/ha, 0 no effect, 100 complete control; for Plant response rating, Corn: 500 g ai/ha, 0 is no effect, 100 is complete control
Description: as §1, §2

[13] = system: velvetleaf (Abutilon theophrasti); experiment: Test A postemergence velvetleaf; settings: 0 to 100 scale, 0 is no effect, 100 is complete control
Description: as §1, §2

[14] = system: barnyardgrass (Echinochloa crus-galli); experiment: Test A preemergence barnyardgrass; settings: 0 to 100 scale; for Barnyardgrass plant response rating: 125 g ai/ha, 0 no effect, 100 complete control; for Plant response rating, Barnyardgrass: 500 g ai/ha, 0 is no effect, 100 is complete control
Outline: as §4

[15] = system: morningglory (Ipomoea spp.); experiment: Test A postemergence morningglory; settings: 0 to 100 scale, 0 is no effect, 100 is complete control
Description: as §1, §2

[16] = system: pigweed (Amaranthus retroflexus); experiment: Test A postemergence pigweed; settings: 0 to 100 scale, 0 is no effect, 100 is complete control
Outline: as §4

[17] = system: morningglory (Ipomoea spp.); experiment: Test A preemergence morningglory; settings: 0 to 100 scale, 0 no effect, 100 complete control
Description: as §1, §2

corn (Zea mays) [18] = experiment: Test A postemergence corn; settings: 0 to 100 scale, 0 is no effect, 100 is complete control
Outline: as §4

[19] = system: foxtail, giant (giant foxtail, Setaria faberii); experiment: Test A preemergence foxtail, giant; settings: 0 to 100 scale, 0 no effect, 100 complete control
Outline: as §4

Row | Compound | Plant response rating, Crabgrass, Large ([1]; 125 g ai/ha) | Plant response rating, Crabgrass, Large ([1]; 500 g ai/ha) | Wheat plant response rating ([2]; 125 g ai/ha) | Wheat plant response rating ([2]; 500 g ai/ha) | Crabgrass, Large plant response rating [3] | Plant response rating, Crabgrass, Large [3] | Plant response rating [4] | Plant response rating [5] | Plant response rating [6] | Velvetleaf plant response rating ([7]; 125 g ai/ha) | Velvetleaf plant response rating ([7]; 500 g ai/ha) | Plant response rating (rice (Oryza sativa)) | Plant response rating, Wheat ([8]; 125 g ai/ha) | Plant response rating, Wheat ([8]; 500 g ai/ha) | Pigweed plant response rating ([9]; 125 g ai/ha) | Pigweed plant response rating ([9]; 500 g ai/ha) | Plant response rating, Foxtail, Giant ([10]; 125 g ai/ha) | Plant response rating, Foxtail, Giant ([10]; 500 g ai/ha) | Plant response rating, Barnyardgrass ([11]; 125 g ai/ha) | Plant response rating, Barnyardgrass ([11]; 500 g ai/ha) | other results
1 | O=C1NCCC(c2ccc(F)c(F)c2)C1C(=O)Nc1ccccc1C(F)(F)F (racemic) [Compound 6] | 50 | 80 | 0 | 0 | 90 | 90 | 0 | 0 | 60 | 0 | 0 | 0 | 0 | 0 | 0 | 0 | 30 | 70 | 0 | 50 | Corn plant response rating (corn (Zea mays) [12]): 0; Plant response rating, Corn (corn (Zea mays) [12]): 0; Plant response rating, Velvetleaf ([13]; 125 g ai/ha): 0; Plant response rating, Velvetleaf ([13]; 500 g ai/ha): 0; Barnyardgrass plant response rating [14]: 60; Plant response rating, Barnyardgrass [14]: 80; Plant response rating, Morningglory ([15]; 125 g ai/ha): 0; Plant response rating, Morningglory ([15]; 500 g ai/ha): 0; Plant response rating, Pigweed ([16]; 125 g ai/ha): 0; Plant response rating, Pigweed ([16]; 500 g ai/ha): 30; Morningglory plant response rating ([17]; 125 g ai/ha): 0; Morningglory plant response rating ([17]; 500 g ai/ha): 0; Plant response rating, Corn (corn (Zea mays) [18]; 125 g ai/ha): 0; Plant response rating, Corn (corn (Zea mays) [18]; 500 g ai/ha): 0; Foxtail, Giant plant response rating ([19]; 125 g ai/ha): 60; Foxtail, Giant plant response rating ([19]; 500 g ai/ha): 90
2 | O=C1NCCC(c2ccc(F)c(F)c2)C1C(=O)Nc1ccccc1F (racemic) [Compound 1] | 30 | 70 | 0 | 0 | 80 | 90 | 0 | 0 | 0 | 0 | 0 | 0 | 0 | 0 | 0 | 0 | 0 | 0 | 0 | 50 | Corn plant response rating (corn (Zea mays) [12]): 0; Plant response rating, Corn (corn (Zea mays) [12]): 0; Plant response rating, Velvetleaf ([13]; 125 g ai/ha): 0; Plant response rating, Velvetleaf ([13]; 500 g ai/ha): 0; Barnyardgrass plant response rating [14]: 0; Plant response rating, Barnyardgrass [14]: 70; Plant response rating, Morningglory ([15]; 125 g ai/ha): 0; Plant response rating, Morningglory ([15]; 500 g ai/ha): 0; Plant response rating, Pigweed ([16]; 125 g ai/ha): 0; Plant response rating, Pigweed ([16]; 500 g ai/ha): 0; Morningglory plant response rating ([17]; 125 g ai/ha): 0; Morningglory plant response rating ([17]; 500 g ai/ha): 0; Plant response rating, Corn (corn (Zea mays) [18]; 125 g ai/ha): 0; Plant response rating, Corn (corn (Zea mays) [18]; 500 g ai/ha): 0; Foxtail, Giant plant response rating ([19]; 125 g ai/ha): 30; Foxtail, Giant plant response rating ([19]; 500 g ai/ha): 90
3 | O=C1NCCC(c2ccccc2)C1C(=O)Nc1ccccc1F (racemic) [Compound 3] | 0 | 0 | 0 | 20 | 0 | 30 | 0 | 0 | 0 | 0 | 0 | 0 | 0 | 0 | 0 | 0 | 0 | 0 | 0 | 0 | Corn plant response rating (corn (Zea mays) [12]): 0; Plant response rating, Corn (corn (Zea mays) [12]): 0; Plant response rating, Velvetleaf ([13]; 125 g ai/ha): 0; Plant response rating, Velvetleaf ([13]; 500 g ai/ha): 0; Barnyardgrass plant response rating [14]: 0; Plant response rating, Barnyardgrass [14]: 0; Plant response rating, Morningglory ([15]; 125 g ai/ha): 0; Plant response rating, Morningglory ([15]; 500 g ai/ha): 0; Plant response rating, Pigweed ([16]; 125 g ai/ha): 0; Plant response rating, Pigweed ([16]; 500 g ai/ha): 0; Morningglory plant response rating ([17]; 125 g ai/ha): 0; Morningglory plant response rating ([17]; 500 g ai/ha): 0; Plant response rating, Corn (corn (Zea mays) [18]; 125 g ai/ha): 0; Plant response rating, Corn (corn (Zea mays) [18]; 500 g ai/ha): 0; Foxtail, Giant plant response rating ([19]; 125 g ai/ha): 0; Foxtail, Giant plant response rating ([19]; 500 g ai/ha): 0
4 | O=C1NCCC(c2ccc(F)cc2)C1C(=O)Nc1ccccc1C(F)(F)F (racemic) [Compound 4] | 40 | 70 | 0 | 0 | 90 | 90 | 0 | 0 | 0 | 0 | 0 | 0 | 0 | 0 | 0 | 0 | 0 | 0 | 0 | 20 | Corn plant response rating (corn (Zea mays) [12]): 0; Plant response rating, Corn (corn (Zea mays) [12]): 0; Plant response rating, Velvetleaf ([13]; 125 g ai/ha): 0; Plant response rating, Velvetleaf ([13]; 500 g ai/ha): 0; Barnyardgrass plant response rating [14]: 0; Plant response rating, Barnyardgrass [14]: 50; Plant response rating, Morningglory ([15]; 125 g ai/ha): 0; Plant response rating, Morningglory ([15]; 500 g ai/ha): 0; Plant response rating, Pigweed ([16]; 125 g ai/ha): 0; Plant response rating, Pigweed ([16]; 500 g ai/ha): 0; Morningglory plant response rating ([17]; 125 g ai/ha): 0; Morningglory plant response rating ([17]; 500 g ai/ha): 0; Plant response rating, Corn (corn (Zea mays) [18]; 125 g ai/ha): 0; Plant response rating, Corn (corn (Zea mays) [18]; 500 g ai/ha): 0; Foxtail, Giant plant response rating ([19]; 125 g ai/ha): 10; Foxtail, Giant plant response rating ([19]; 500 g ai/ha): 70
